Data as given in the CheMixHub viscosity set.

Test: xn = mol fraction of the nth substance listed

CCCCNCCCC + CC(C)(C)O
viscosity [mPa·s]
Details | 298.15 K | 303.15 K | 308.15 K | 313.15 K | 318.15 K | 323.15 K
101 kPa, x2 = 0.1 | – | 0.8289 | 0.7649 | 0.7079 | 0.658 | 0.6131
101 kPa, x2 = 0.2 | – | 0.8953 | 0.8203 | 0.7551 | 0.6972 | 0.6454
101 kPa, x2 = 0.3 | – | 0.976 | 0.8884 | 0.8111 | 0.7456 | 0.6862
101 kPa, x2 = 0.4 | – | 1.082 | 0.9747 | 0.8862 | 0.8031 | 0.7331
101 kPa, x2 = 0.4999 | – | 1.217 | 1.085 | 0.9769 | 0.8802 | 0.7968
101 kPa, x2 = 0.55 | – | 1.302 | 1.153 | 1.027 | 0.92 | 0.829
101 kPa, x2 = 0.6001 | – | 1.391 | 1.228 | 1.087 | 0.9714 | 0.8676
101 kPa, x2 = 0.65 | – | 1.513 | 1.32 | 1.16 | 1.027 | 0.9126
101 kPa, x2 = 0.7 | – | 1.647 | 1.423 | 1.24 | 1.089 | 0.9614
101 kPa, x2 = 0.8001 | – | 2.011 | 1.696 | 1.441 | 1.245 | 1.08
101 kPa, x2 = 0.9 | – | 2.559 | 2.087 | 1.71 | 1.45 | 1.232
101 kPa, x2 = 0.95 | – | 2.937 | 2.352 | 1.91 | 1.583 | 1.333
101.33 kPa, x1 = 0.0672 | 3.548 | – | 2.271 | – | 1.565 | –
101.33 kPa, x1 = 0.0989 | 3.272 | – | 2.133 | – | 1.497 | –
101.33 kPa, x1 = 0.1393 | 2.953 | – | 1.97 | – | 1.409 | –
101.33 kPa, x1 = 0.1939 | 2.586 | – | 1.782 | – | 1.303 | –
101.33 kPa, x1 = 0.2674 | 2.165 | – | 1.559 | – | 1.172 | –
101.33 kPa, x1 = 0.3319 | 1.893 | – | 1.402 | – | 1.077 | –
101.33 kPa, x1 = 0.405 | 1.643 | – | 1.25 | – | 0.984 | –
101.33 kPa, x1 = 0.4915 | 1.419 | – | 1.109 | – | 0.895 | –
101.33 kPa, x1 = 0.5791 | 1.248 | – | 0.999 | – | 0.816 | –
101.33 kPa, x1 = 0.6466 | 1.143 | – | 0.93 | – | 0.769 | –
101.33 kPa, x1 = 0.6907 | 1.086 | – | 0.89 | – | 0.745 | –
101.33 kPa, x1 = 0.776 | 0.994 | – | 0.825 | – | 0.7 | –
101.33 kPa, x1 = 0.8387 | 0.932 | – | 0.783 | – | 0.671 | –
101.33 kPa, x1 = 0.8867 | 0.889 | – | 0.752 | – | 0.654 | –
101.33 kPa, x1 = 0.9129 | 0.872 | – | 0.742 | – | 0.642 | –
101.33 kPa, x1 = 0.9471 | 0.845 | – | 0.724 | – | 0.629 | –

COCCO + CCCO
Details | viscosity [mPa·s]
298.15 K, 100 kPa, x1 = 0.1005 | 1.79
298.15 K, 100 kPa, x1 = 0.2016 | 1.68
298.15 K, 100 kPa, x1 = 0.3013 | 1.61
298.15 K, 100 kPa, x1 = 0.4012 | 1.56
298.15 K, 100 kPa, x1 = 0.5013 | 1.53
298.15 K, 100 kPa, x1 = 0.6005 | 1.52
298.15 K, 100 kPa, x1 = 0.7008 | 1.52
298.15 K, 100 kPa, x1 = 0.8003 | 1.52
298.15 K, 100 kPa, x1 = 0.9001 | 1.54
298.15 K, 101 kPa, x1 = 0.08067 | 1.901
298.15 K, 101 kPa, x1 = 0.1649 | 1.776
298.15 K, 101 kPa, x1 = 0.2529 | 1.692
298.15 K, 101 kPa, x1 = 0.3449 | 1.65
298.15 K, 101 kPa, x1 = 0.4413 | 1.624
298.15 K, 101 kPa, x1 = 0.5423 | 1.601
298.15 K, 101 kPa, x1 = 0.6482 | 1.59
298.15 K, 101 kPa, x1 = 0.7596 | 1.58
298.15 K, 101 kPa, x1 = 0.8767 | 1.571
298.15 K, 101.33 kPa, x1 = 0.0072 | 1.938
298.15 K, 101.33 kPa, x1 = 0.0141 | 1.926
298.15 K, 101.33 kPa, x1 = 0.0297 | 1.898
298.15 K, 101.33 kPa, x1 = 0.0471 | 1.867
298.15 K, 101.33 kPa, x1 = 0.062 | 1.844
308.15 K, 101 kPa, x1 = 0.08067 | 1.34
308.15 K, 101 kPa, x1 = 0.1014 | 1.435
308.15 K, 101 kPa, x1 = 0.1502 | 1.402
308.15 K, 101 kPa, x1 = 0.1649 | 1.264
308.15 K, 101 kPa, x1 = 0.2508 | 1.351
308.15 K, 101 kPa, x1 = 0.2529 | 1.249
308.15 K, 101 kPa, x1 = 0.3049 | 1.331
308.15 K, 101 kPa, x1 = 0.3449 | 1.227
308.15 K, 101 kPa, x1 = 0.3667 | 1.301
308.15 K, 101 kPa, x1 = 0.4257 | 1.303
308.15 K, 101 kPa, x1 = 0.4413 | 1.206
308.15 K, 101 kPa, x1 = 0.4838 | 1.28
308.15 K, 101 kPa, x1 = 0.5161 | 1.278
308.15 K, 101 kPa, x1 = 0.5378 | 1.276
308.15 K, 101 kPa, x1 = 0.5423 | 1.179
308.15 K, 101 kPa, x1 = 0.5647 | 1.279
308.15 K, 101 kPa, x1 = 0.6129 | 1.27
308.15 K, 101 kPa, x1 = 0.6482 | 1.154
308.15 K, 101 kPa, x1 = 0.67 | 1.252
308.15 K, 101 kPa, x1 = 0.7387 | 1.25
308.15 K, 101 kPa, x1 = 0.7596 | 1.131
308.15 K, 101 kPa, x1 = 0.7685 | 1.251
308.15 K, 101 kPa, x1 = 0.8213 | 1.251
308.15 K, 101 kPa, x1 = 0.8767 | 1.125
308.15 K, 101 kPa, x1 = 0.8898 | 1.253
308.15 K, 101 kPa, x1 = 0.9239 | 1.253
308.15 K, 101 kPa, x1 = 0.9491 | 1.26
308.15 K, 101 kPa, x1 = 0.9574 | 1.264
308.15 K, 101 kPa, x1 = 0.9686 | 1.277
308.15 K, 101 kPa, x2 = 0.0129 | 1.288
308.15 K, 101.33 kPa, x1 = 0.117 | 1.362
308.15 K, 101.33 kPa, x1 = 0.1795 | 1.319
308.15 K, 101.33 kPa, x1 = 0.3024 | 1.26
308.15 K, 101.33 kPa, x1 = 0.4526 | 1.207
308.15 K, 101.33 kPa, x1 = 0.5265 | 1.192
308.15 K, 101.33 kPa, x1 = 0.6439 | 1.185
308.15 K, 101.33 kPa, x1 = 0.7915 | 1.182
308.15 K, 101.33 kPa, x1 = 0.8693 | 1.174
313.15 K, 100 kPa, x1 = 0.1005 | 1.3
313.15 K, 100 kPa, x1 = 0.2016 | 1.23
313.15 K, 100 kPa, x1 = 0.3013 | 1.19
313.15 K, 100 kPa, x1 = 0.4012 | 1.16
313.15 K, 100 kPa, x1 = 0.5013 | 1.15
313.15 K, 100 kPa, x1 = 0.6005 | 1.14
313.15 K, 100 kPa, x1 = 0.7008 | 1.14
313.15 K, 100 kPa, x1 = 0.8003 | 1.15
313.15 K, 100 kPa, x1 = 0.9001 | 1.16
318.15 K, 101 kPa, x1 = 0.08067 | 1.099
318.15 K, 101 kPa, x1 = 0.1014 | 1.168
318.15 K, 101 kPa, x1 = 0.1502 | 1.142
318.15 K, 101 kPa, x1 = 0.1649 | 1.058
318.15 K, 101 kPa, x1 = 0.2508 | 1.089
318.15 K, 101 kPa, x1 = 0.2529 | 1.003
318.15 K, 101 kPa, x1 = 0.3049 | 1.079
318.15 K, 101 kPa, x1 = 0.3449 | 0.9764
318.15 K, 101 kPa, x1 = 0.3667 | 1.062
318.15 K, 101 kPa, x1 = 0.4257 | 1.052
318.15 K, 101 kPa, x1 = 0.4413 | 0.9794
318.15 K, 101 kPa, x1 = 0.4838 | 1.036
318.15 K, 101 kPa, x1 = 0.5161 | 1.029
318.15 K, 101 kPa, x1 = 0.5378 | 1.032
318.15 K, 101 kPa, x1 = 0.5423 | 0.9701
318.15 K, 101 kPa, x1 = 0.5647 | 1.028
318.15 K, 101 kPa, x1 = 0.6129 | 1.021
318.15 K, 101 kPa, x1 = 0.6482 | 0.9645
318.15 K, 101 kPa, x1 = 0.67 | 1.017
318.15 K, 101 kPa, x1 = 0.7387 | 1.018
318.15 K, 101 kPa, x1 = 0.7596 | 0.9589
318.15 K, 101 kPa, x1 = 0.7685 | 1.018
318.15 K, 101 kPa, x1 = 0.8213 | 1.016
318.15 K, 101 kPa, x1 = 0.8767 | 0.9552
318.15 K, 101 kPa, x1 = 0.8898 | 1.022
318.15 K, 101 kPa, x1 = 0.9239 | 1.025
318.15 K, 101 kPa, x1 = 0.9491 | 1.029
318.15 K, 101 kPa, x1 = 0.9574 | 1.028
318.15 K, 101 kPa, x1 = 0.9686 | 1.027
318.15 K, 101 kPa, x2 = 0.0129 | 1.029

N#C[S-].[Na+] + O
viscosity [mPa·s], 101.3 kPa
Details | 293.15 K | 298.15 K | 303.15 K | 308.15 K | 313.15 K | 318.15 K | 323.15 K
x1 = 0.000641 | 1.046 | 0.938 | 0.839 | 0.759 | 0.689 | 0.629 | 0.577
x1 = 0.0118 | 1.037 | 0.943 | 0.835 | 0.771 | 0.699 | 0.638 | 0.589
x1 = 0.01737 | 1.104 | 0.985 | 0.887 | 0.805 | 0.732 | 0.672 | 0.618
x1 = 0.03707 | 1.261 | 1.128 | 1.016 | 0.92 | 0.834 | 0.766 | 0.706
x1 = 0.05053 | 1.367 | 1.221 | 1.124 | 1.015 | 0.919 | 0.834 | 0.776
x1 = 0.07571 | 1.549 | 1.387 | 1.25 | 1.132 | 1.03 | 0.945 | 0.87
x1 = 0.09639 | 1.81 | 1.613 | 1.442 | 1.308 | 1.19 | 1.091 | 1.003
x1 = 0.1127 | 2.193 | 1.939 | 1.732 | 1.56 | 1.408 | 1.295 | 1.18
x1 = 0.1223 | 2.333 | 2.061 | 1.828 | 1.653 | 1.493 | 1.356 | 1.248
x1 = 0.1239 | 2.378 | 2.099 | 1.873 | 1.679 | 1.52 | 1.384 | 1.27
x1 = 0.1334 | 2.641 | 2.321 | 2.06 | 1.842 | 1.668 | 1.505 | 1.374
x1 = 0.1416 | 2.851 | 2.501 | 2.214 | 1.977 | 1.779 | 1.609 | 1.468
x1 = 0.1532 | 3.196 | 2.792 | 2.461 | 2.191 | 1.963 | 1.777 | 1.619
x1 = 0.1683 | 3.749 | 3.258 | 2.858 | 2.527 | 2.259 | 2.049 | 1.837
x1 = 0.1834 | 4.424 | 3.802 | – | – | – | – | –
